For test [1], the system named is primary human fibroblasts derived from IPF patients (LL29 cells). Nature of the test: Inhibition of fibrotic process: αSMA staining in TGF-β1-treated primary human fibroblasts from IPF patients (LL29 cells). The following applies: Fibroblast, 96 h, LL29 cells treated with TGF-β1 (20 ng/mL), 4 days, 11-point dose-response from 10 μM to 1.87 nM, read-out: Inhibition of fibrosis EC50. In kind it is cell-based. The source says:
The above synthesized compounds were screened using primary human fibroblasts (derived from IPF patients) treated with TGF-β1 to determine their ability to inhibit the fibrotic process.
Primary human fibroblasts derived from IPF patients (LL29 cells) [^1Xiaoqiu Liu, et. al., “Fibrotic Lung Fibroblasts Show Blunted Inhibition by cAMP Due to Deficient cAMP Response Element-Binding Protein Phosphorylation”, Journal of Pharmacology and Experimental Therapeutics (2005), 315(2), 678-687; ^2Watts, K. L., et. al., “RhoA signaling modulates cyclin D1 expression in human lung fibroblasts; implications for idiopathic pulmonary fibrosis”, Respiratory Research (2006), 7(1), 88] were obtained from American Type Culture Collection (ATCC) and expanded in F12 medium supplemented with 15% Fetal Bovine Serum and Penicillin/Streptomycin.
Each compound was dissolved in DMSO as a 10 mM stock and used to prepare compound source plates. Serial dilution (1:2, 11-point dose-response curves from 10 μM to 1.87 nM) and compound transfer was performed using the ECHO 550 (Labcyte, Sunnyvale, Calif.) into 384-well clear bottom assay plates (Greiner Bio-One) with appropriate DMSO backfill for a final DMSO concentration of 0.1%. LL29 cells were plated at 1,500 cells/well in 80 μl/well F12 medium supplemented with 1% Fetal Bovine Serum. One hour after addition of the cells, TGF-β1 (Peprotech; 20 ng/mL) was added to the plates to induce fibrosis (ref. 1 and 2 above). Wells treated with TGF-β1 and containing DMSO were used as controls. Cells were incubated at 37° C. and 5% CO2 for 4 days. Following incubation for 4 days, SYTOX green nucleic acid stain (Life Technologies [Thermo Fisher Scientific]) was added to the wells at a final concentration of 1 uM and incubated at room temperature for 30 min. Cells were then fixed using 4% formaldehyde (Electron Microscopy Sciences), washed 3 times with PBS followed by blocking and permeabilization using 3% Bovine Serum Albumin (BSA; Sigma) and 0.3% Triton X-100 (Sigma) in PBS. Cells were then stained with antibody specific to α-smooth muscle actin (αSMA; Abcam) (ref. 1 and 2 above) in 3% Bovine Serum Albumin (BSA; Sigma) and 0.3% Triton X-100 (Sigma) in PBS, and incubated overnight at 4° C. Cells were then washed 3 times with PBS, followed by incubation with Alexa Flor-647 conjugated secondary antibody (Life Technologies [Thermo Fisher Scientific]) and DAPI at room temperature for 1 hour. Cells were then washed 3 times with PBS and plates were sealed for imaging. αSMA staining was imaged by excitation at 630 nm and emission at 665 nm and quantified using the Compartmental Analysis program on the CellInsight CX5 (Thermo Scientific). Dead or apoptotic cells were excluded from analysis based on positive SYTOX green staining. % of total cells positive for αSMA were counted in each well and normalized to the average of 11 wells treated with TGF-β1 on the same plate using Dotmatics' Studies Software. The normalized averages (fold change over untreated) of 3 replicate wells for each compound concentration were used to create dose-responses curves and EC50 values were calculated using non-linear regression curve fit in the Dotmatics' Studies Software. The EC50 values are reported.

Test [2] concerns Wnt activity (Wnt-responsive Sp5 promoter-luciferase reporter in SW480 cells). Nature of the test: Wnt activity screening assay: Sp5-Luc reporter gene in SW480 colon carcinoma cells. The test is classed as cell-based. As to conditions: Homo sapiens. The text has this:
The screening assay for Wnt activity is described as follows. Reporter cell lines can be generated by stably transducing cancer cell lines (e.g., colon cancer) or primary cells (e.g., IEC-6 intestinal cells) with a lentiviral construct that includes a Wnt-responsive promoter driving expression of the firefly luciferase gene.
SW480 colon carcinoma cells were transduced with a lentiviral vector expressing luciferase with a human Sp5 promoter consisting of a sequence of eight TCF/LEF binding sites. SW480 cells stably expressing the Sp5-Luc reporter gene and a hygromycin resistance gene were selected by treatment with 150 μg/ml of hygromycin for 7 days. These stably transduced SW480 cells were expanded in cell culture and used for all further screening activities. For Sp5-Luc reporter gene assays, the cells were plated at 10,000 cells/well in 96-well plates with growth medium containing 10% fetal calf serum and incubated overnight at 37° C. and 5% CO2. Each compound was dissolved in DMSO as a 10 mM stock in standard j-vials and used to prepare compound source plates in dose-response format with 3-fold serial dilutions and a 10 mM top concentration. Compound transfer from serially diluted source plates to assay plates containing the cells was accomplished using a pintool (Multimek 96, Beckman equipped with V&P Scientific FP1S50H pins) based liquid handling protocol. This protocol used a slotted pin to transfer 50 nl of compound from a source plate well to an assay plate well containing 50 μl of cells in growth medium. […] Control wells received 50 nl of DMSO treatment for normalization and calculating IC50 values. The treated cells were incubated at 37° C. and 5% CO2 for an additional forty-two hours. Following incubation, the growth medium was removed and 50 μl of BrightGlo luminescence reagent (Promega) was added to each well of the 96-well assay plates. The plates were placed on an orbital shaker for 5 min and then luminescence was quantified on the Victor3 (Perkin Elmer) plate reader. Readings were normalized to DMSO only treated cells, and normalized activities were utilized for IC50 calculations using the dose-response log (inhibitor) vs. response-variable slope (four parameters) nonlinear regression feature available in GraphPad Prism 5.0 or 6.0.
On the technique in general: A reporter such as luciferase makes a cellular process visible.

pEC50, pIC50: −log10 of the molar value. Some results are limits rather than exact numbers.

Turning to `Fc1ccc(-c2cncc3[nH]c(-c4n[nH]c5cnc(-c6cncc(CN7CCCC7)c6)cc45)nc23)cc1` [Compound 40, 3-(7-(4-Fluorophenyl)-3H-imidazo[4,5-c]pyridin-2-yl)-5-(5-(pyrrolidin-1-ylmethyl)pyridin-3-yl)-1H-pyrazolo[3,4-c]pyridine], the pEC50 in test [1] is 5.75. The pIC50 in test [2] is 5.97.
The matching figures for `c1cncc(-c2cc3c(-c4nc5c(-c6cccnc6)cncc5[nH]4)n[nH]c3cn2)c1` [Compound 82, 5-(Pyridin-3-yl)-3-(7-(pyridin-3-yl)-3H-imidazo[4,5-c]pyridin-2-yl)-1H-pyrazolo[3,4-c]pyridine]: at most 5.00 and below 5.00.
Consider `CCCC(=O)Nc1cncc(-c2cc3c(-c4nc5c(-c6ccc(C)s6)cncc5[nH]4)n[nH]c3cn2)c1` [Compound 355, N-(5-(3-(7-(5-Methylthiophen-2-yl)-3H-imidazo[4,5-c]pyridin-2-yl)-1H-pyrazolo[3,4-c]pyridin-5-yl)pyridin-3-yl)butyramide], for which the pEC50 in test [1] is 6.83. This molecule also showed a pIC50 in test [2] of 8.19.
The matching figures for `c1cc(-c2cncc3[nH]c(-c4n[nH]c5cnc(-c6cncc(CNCC7CCCC7)c6)cc45)nc23)co1` [Compound 284, 1-Cyclopentyl-N-((5-(3-(7-(furan-3-yl)-3H-imidazo[4,5-c]pyridin-2-yl)-1H-pyrazolo[3,4-c]pyridin-5-yl)pyridin-3-yl)methyl)methanamine]: 6.04 and 6.58.
The matching figures for `CCC(=O)Nc1cncc(-c2cc3c(-c4nc5c(-c6cccnc6)cncc5[nH]4)n[nH]c3cn2)c1` [Compound 79, N-(5-(3-(7-(Pyridin-3-yl)-3H-imidazo[4,5-c]pyridin-2-yl)-1H-pyrazolo[3,4-c]pyridin-5-yl)pyridin-3-yl)propionamide]: 7.74 and below 5.00.
The matching figures for `CC(C)(C)C(=O)Nc1cncc(-c2cc3c(-c4nc5c(-c6ccccc6F)cncc5[nH]4)n[nH]c3cn2)c1` [Compound 60, N-(5-(3-(7-(2-Fluorophenyl)-3H-imidazo[4,5-c]pyridin-2-yl)-1H-pyrazolo[3,4-c]pyridin-5-yl)pyridin-3-yl)pivalamide]: at most 5.00 and 7.33.
`CN(C)Cc1cncc(-c2cc3c(-c4nc5c(-c6cccc(F)c6)cncc5[nH]4)n[nH]c3cn2)c1` [Compound 13, 1-(5-(3-(7-(3-Fluorophenyl)-3H-imidazo[4,5-c]pyridin-2-yl)-1H-pyrazolo[3,4-c]pyridin-5-yl)pyridin-3-yl)-N,N-dimethylmethanamine]: the pEC50 in test [1] is at least 8.05. Moreover, the negative logarithm of the IC50 (pIC50) in test [2] was 7.10.
For `Fc1cccc(-c2cncc3[nH]c(-c4n[nH]c5cnc(-c6ccncc6)cc45)nc23)c1` [Compound 900, 3-(7-(3-Fluorophenyl)-3H-imidazo[4,5-c]pyridin-2-yl)-5-(pyridin-4-yl)-1H-pyrazolo[3,4-c]pyridine], in that order: at least 8.05 and 7.19.
Turning to `CC(C)Nc1cncc(-c2cc3c(-c4nc5c(-c6ccoc6)cncc5[nH]4)n[nH]c3cn2)c1` [Compound 272, 5-(3-(7-(Furan-3-yl)-3H-imidazo[4,5-c]pyridin-2-yl)-1H-pyrazolo[3,4-c]pyridin-5-yl)-N-isopropylpyridin-3-amine], the pEC50 in test [1] is at least 8.05. In test [2], this molecule had a negative logarithm of the IC50 (pIC50) of 7.42.
For `Cc1ccc(-c2cncc3[nH]c(-c4n[nH]c5cnc(-c6cncc(NC(=O)C(C)C)c6)cc45)nc23)s1` [Compound 347, N-(5-(3-(7-(5-Methylthiophen-2-yl)-3H-imidazo[4,5-c]pyridin-2-yl)-1H-pyrazolo[3,4-c]pyridin-5-yl)pyridin-3-yl)isobutyramide], in that order: at least 8.05 and 8.12.
Take `Fc1cccc(-c2cncc3[nH]c(-c4n[nH]c5cnc(C6=CCNCC6)cc45)nc23)c1` [Compound 886, 3-(7-(3-Fluorophenyl)-3H-imidazo[4,5-c]pyridin-2-yl)-5-(1,2,3,6-tetrahydropyridin-4-yl)-1H-pyrazolo[3,4-c]pyridine]: in test [1], the negative-log EC50 (pEC50) was 7.14. The same molecule gave a pIC50 in test [2] of 5.71.
The matching figures for `CCCC(=O)Nc1cncc(-c2cc3c(-c4nc5c(-c6ccc(F)cc6)cncc5[nH]4)n[nH]c3cn2)c1` [Compound 43, N-(5-(3-(7-(4-Fluorophenyl)-3H-imidazo[4,5-c]pyridin-2-yl)-1H-pyrazolo[3,4-c]pyridin-5-yl)pyridin-3-yl)butyramide]: 7.12 and 7.12.
For `Fc1ccc(-c2cncc3[nH]c(-c4n[nH]c5cnc(-c6cncnc6)cc45)nc23)cc1` [Compound 52, 3-(7-(4-Fluorophenyl)-3H-imidazo[4,5-c]pyridin-2-yl)-5-(pyrimidin-5-yl)-1H-pyrazolo[3,4-c]pyridine], in that order: 5.92 and 6.75.
For `COc1cc(F)cc(-c2cncc3[nH]c(-c4n[nH]c5cnc(-c6cncc(NC(=O)CC(C)C)c6)cc45)nc23)c1` [Compound 1324, N-(5-(3-(7-(3-Fluoro-5-methoxyphenyl)-3H-imidazo[4,5-c]pyridin-2-yl)-1H-pyrazolo[3,4-c]pyridin-5-yl)pyridin-3-yl)-3-methylbutanamide], in that order: at least 8.05 and 6.26.
For `Cc1ccc(-c2cncc3[nH]c(-c4n[nH]c5cnc(-c6cncc(NC(=O)C(C)(C)C)c6)cc45)nc23)s1` [Compound 346, N-(5-(3-(7-(5-Methylthiophen-2-yl)-3H-imidazo[4,5-c]pyridin-2-yl)-1H-pyrazolo[3,4-c]pyridin-5-yl)pyridin-3-yl)pivalamide], the negative logarithm of the EC50 (pEC50) in test [1] was 7.52. This molecule gave a pIC50 in test [2] of 7.77.
The matching figures for `O=C(Nc1cncc(-c2cc3c(-c4nc5c(-c6ccccc6F)cncc5[nH]4)n[nH]c3cn2)c1)C1CCCC1` [Compound 73, N-(5-(3-(7-(2-Fluorophenyl)-3H-imidazo[4,5-c]pyridin-2-yl)-1H-pyrazolo[3,4-c]pyridin-5-yl)pyridin-3-yl)cyclopentanecarboxamide]: 5.36 and 6.81.
Consider `FC1(F)CCN(Cc2cncc(-c3cc4c(-c5nc6c(-c7cccs7)cncc6[nH]5)n[nH]c4cn3)c2)C1` [Compound 311, 5-(5-((3,3-Difluoropyrrolidin-1-yl)methyl)pyridin-3-yl)-3-(7-(thiophen-2-yl)-3H-imidazo[4,5-c]pyridin-2-yl)-1H-pyrazolo[3,4-c]pyridine], for which the pEC50 in test [1] is 6.60. In test [2], this molecule showed a pIC50 of 7.15.

The term pEC50 denotes −log10 of the EC50, conventionally taken in molar units. As a reminder, the pIC50 is −log10 of the IC50, conventionally taken in molar units. A low value points to a large IC50.

(Values after US10052331B2, “3-(3H-imidazo[4,5-C]pyridin-2-yl)-1H-pyrazolo[3,4-C]pyridine and therapeutic uses thereof” (Samumed, LLC, priority 2014, dated 2018).)
